The values that follow come from PubChem BioAssay AID1259407 (Chemical Carcinogenesis Research Information System (CCRIS), 2018).

For the data set, the system named is CCRIS mutagenicity, Ames/micronucleus/aberration tests. Description: CCRIS mutagenicity studies.
The mark [1] stands for this setting: Test System: AMES SALMONELLA TYPHIMURIUM, Strain/Indicator: TA97, Metabolic Activation: NONE, Method: PREINCUBATION
The mark [2] stands for this setting: Test System: AMES SALMONELLA TYPHIMURIUM, Strain/Indicator: TA97, Metabolic Activation: RAT, LIVER, S-9, AROCLOR 1254 (10%), Method: PREINCUBATION
Setting [3] is: Test System: AMES SALMONELLA TYPHIMURIUM, Strain/Indicator: TA97, Metabolic Activation: RAT, LIVER, S-9, AROCLOR 1254 (30%), Method: PREINCUBATION
[4] abbreviates: Test System: AMES SALMONELLA TYPHIMURIUM, Strain/Indicator: TA98, Metabolic Activation: HAMSTER, LIVER, S-9, AROCLOR 1254 (10 OR 30%), Method: PREINCUBATION
Where [5] appears, read: Test System: AMES SALMONELLA TYPHIMURIUM, Strain/Indicator: TA98, Metabolic Activation: NONE, Method: PREINCUBATION
[6] abbreviates: Test System: AMES SALMONELLA TYPHIMURIUM, Strain/Indicator: TA100, Metabolic Activation: NONE, Method: PREINCUBATION
[7] abbreviates: Test System: AMES SALMONELLA TYPHIMURIUM, Strain/Indicator: TA100, Metabolic Activation: RAT, LIVER, S-9, AROCLOR 1254 (30%), Method: PREINCUBATION
[8] abbreviates: Test System: AMES SALMONELLA TYPHIMURIUM, Strain/Indicator: TA1535, Metabolic Activation: HAMSTER, LIVER, S-9, AROCLOR 1254 (10 OR 30%), Method: PREINCUBATION
[9] abbreviates: Test System: AMES SALMONELLA TYPHIMURIUM, Strain/Indicator: TA1535, Metabolic Activation: NONE, Method: PREINCUBATION

The source made the active and inactive calls. No rule for the calls is given here.

As to `CCC1NC(=O)c2cc(S(N)(=O)=O)c(Cl)cc2N1` (centres undefined), the mutagenic call (Test System: AMES SALMONELLA TYPHIMURIUM, Strain/Indicator: TA97, Metabolic Activation: HAMSTER, LIVER, S-9, AROCLOR 1254 (10%), Method: PREINCUBATION) was “inactive; negative”; the mutagenic call (Test System: AMES SALMONELLA TYPHIMURIUM, Strain/Indicator: TA97, Metabolic Activation: HAMSTER, LIVER, S-9, AROCLOR 1254 (30%), Method: PREINCUBATION) was “inactive; negative”; the mutagenic call under setting [1] is “inactive; negative”; the mutagenic call under setting [2] is “inactive; negative”; the mutagenic call under setting [3] was “inactive; negative”; the mutagenic call under setting [4] is “inactive; negative”. Further, the mutagenic call under setting [5] was “inactive; negative”; the mutagenic call (Test System: AMES SALMONELLA TYPHIMURIUM, Strain/Indicator: TA98, Metabolic Activation: RAT, LIVER, S-9, AROCLOR 1254 (10 OR 30%), Method: PREINCUBATION) was “inactive; negative”; the mutagenic call (Test System: AMES SALMONELLA TYPHIMURIUM, Strain/Indicator: TA100, Metabolic Activation: HAMSTER, LIVER, S-9, AROCLOR 1254 (5 OR 10%), Method: PREINCUBATION) is “inactive; negative”; the mutagenic call (Test System: AMES SALMONELLA TYPHIMURIUM, Strain/Indicator: TA100, Metabolic Activation: HAMSTER, LIVER, S-9, AROCLOR 1254 (30%), Method: PREINCUBATION) is “inactive; negative”; the mutagenic call under setting [6] is “inactive; negative”; the mutagenic call (Test System: AMES SALMONELLA TYPHIMURIUM, Strain/Indicator: TA100, Metabolic Activation: RAT, LIVER, S-9, AROCLOR 1254 (5 OR 10%), Method: PREINCUBATION) is “inactive; negative”. The mutagenic call was “inactive; negative” under setting [7]; “inactive; negative” under setting [8]; “inactive; negative” under setting [9]; “inactive; negative” (Test System: AMES SALMONELLA TYPHIMURIUM, Strain/Indicator: TA1535, Metabolic Activation: RAT, LIVER, S-9, AROCLOR 1254 (10 OR 30%), Method: PREINCUBATION).

Take `C[C@]12CC[C@H]3C(=CCc4cc(O)ccc43)[C@@H]1CCC2=O`: the mutagenic call (Test System: UDS RAT HEPATOCYTES, Strain/Indicator: THY INCORP (18-20 HR), Metabolic Activation: NONE, Method: LIQUID SCINTILLATION COUNTING) is “inactive; negative”.

As for `CN(Cc1ccc(Cl)cc1)N=O`, the mutagenic call is, setting by setting: (Test System: AMES SALMONELLA TYPHIMURIUM, Strain/Indicator: TA1535, Metabolic Activation: HAMSTER, LIVER, S-9, AROCLOR 1254, Method: STANDARD PLATE) “active; positive”; (Test System: AMES SALMONELLA TYPHIMURIUM, Strain/Indicator: TA1535, Metabolic Activation: NONE, Method: STANDARD PLATE) “inactive; negative”.

For `C[C@H](CCC(=O)O)[C@H]1CC[C@H]2[C@@H]3CC[C@@H]4C[C@H](O)CC[C@]4(C)[C@H]3CC[C@]12C`, the mutagenic call reads like this: (Test System: AMES SALMONELLA TYPHIMURIUM, Strain/Indicator: TA97, Metabolic Activation: HAMSTER, LIVER, S-9, AROCLOR 1254 (10 OR 30%), Method: PREINCUBATION) “inactive; negative”; under setting [1], “inactive; negative”; under setting [2], “inactive; negative”; under setting [3], “inactive; negative”; under setting [4], “inactive; negative”; (Test System: AMES SALMONELLA TYPHIMURIUM, Strain/Indicator: TA98, Metabolic Activation: NONE, Method: FLUCTUATION TEST) “inactive; negative”. In addition, the mutagenic call was “inactive; negative” under setting [5]; “inactive; negative” (Test System: AMES SALMONELLA TYPHIMURIUM, Strain/Indicator: TA98, Metabolic Activation: RAT, LIVER, S-9, AROCLOR 1254 (10%), Method: PREINCUBATION); “inactive; negative” (Test System: AMES SALMONELLA TYPHIMURIUM, Strain/Indicator: TA98, Metabolic Activation: RAT, LIVER, S-9, AROCLOR 1254 (30%), Method: PREINCUBATION); “inactive; negative” (Test System: AMES SALMONELLA TYPHIMURIUM, Strain/Indicator: TA98, Method: PREINCUBATION); “inactive; negative” (Test System: AMES SALMONELLA TYPHIMURIUM, Strain/Indicator: TA100, Metabolic Activation: HAMSTER, LIVER, S-9, AROCLOR 1254 (10 OR 30%), Method: PREINCUBATION); “inactive; negative” (Test System: AMES SALMONELLA TYPHIMURIUM, Strain/Indicator: TA100, Metabolic Activation: NONE, Method: FLUCTUATION TEST). Further, the mutagenic call reads like this: under setting [6], “inactive; negative”; (Test System: AMES SALMONELLA TYPHIMURIUM, Strain/Indicator: TA100, Metabolic Activation: NONE, Method: STANDARD PLATE) “inactive; negative”; (Test System: AMES SALMONELLA TYPHIMURIUM, Strain/Indicator: TA100, Metabolic Activation: RAT, LIVER, S-9, AROCLOR 1254 (10%), Method: PREINCUBATION) “inactive; negative”; under setting [7], “inactive; negative”; (Test System: AMES SALMONELLA TYPHIMURIUM, Strain/Indicator: TA100, Metabolic Activation: RAT, LIVER, S-9, AROCLOR 1254, Method: STANDARD PLATE) “inactive; negative”; under setting [8], “inactive; negative”. The mutagenic call reads like this: under setting [9], “inactive; negative”; (Test System: AMES SALMONELLA TYPHIMURIUM, Strain/Indicator: TA1535, Metabolic Activation: RAT, LIVER, S-9, AROCLOR 1254 (10%), Method: PREINCUBATION) “inactive; negative”; (Test System: AMES SALMONELLA TYPHIMURIUM, Strain/Indicator: TA1535, Metabolic Activation: RAT, LIVER, S-9, AROCLOR 1254 (30%), Method: PREINCUBATION) “inactive; negative”; (Test System: E. COLI, Strain/Indicator: WP2 UVRA, Metabolic Activation: HAMSTER, LIVER, S-9, AROCLOR 1254, Method: STANDARD PLATE) “inactive; negative”; (Test System: E. COLI, Strain/Indicator: WP2 UVRA, Metabolic Activation: HAMSTER, LIVER, S-9, Method: STANDARD PLATE) “inactive; negative”; (Test System: E. COLI, Strain/Indicator: WP2 UVRA, Metabolic Activation: MOUSE, LIVER, S-9, AROCLOR 1254, Method: STANDARD PLATE) “inactive; negative”. The mutagenic call (Test System: E. COLI, Strain/Indicator: WP2 UVRA, Metabolic Activation: MOUSE, LIVER, S-9, Method: STANDARD PLATE) is “inactive; negative”; the mutagenic call (Test System: E. COLI, Strain/Indicator: WP2 UVRA, Metabolic Activation: NONE, Method: STANDARD PLATE) was “inactive; negative”; the mutagenic call (Test System: E. COLI, Strain/Indicator: WP2 UVRA, Metabolic Activation: RAT, LIVER, S-9, AROCLOR 1254, Method: STANDARD PLATE) was “inactive; negative”; the mutagenic call (Test System: E. COLI, Strain/Indicator: WP2 UVRA, Metabolic Activation: RAT, LIVER, S-9, Method: STANDARD PLATE) was “inactive; negative”; the mutagenic call (Test System: MOUSE LYMPHOMA, Strain/Indicator: L5178Y (TK+/TK-), Metabolic Activation: RAT, LIVER, S-9, AROCLOR 1254, Method: SUSPENSION/PLATE) was “inactive; negative”; the mutagenic call (Test System: MOUSE LYMPHOMA, Strain/Indicator: L5178Y (TK+/TK-), Metabolic Activation: RAT, LIVER, S-9, Method: SUSPENSION/PLATE) was “inactive; negative”.
